Entries after “also recorded” stand apart in the source; their conditions may differ.
Assays:
[1] = Pharmacokinetic study 1: P5P and P5P analog 16, IV and PO, rats; assay type: in vivo; settings: rat
Description: Pharmacokinetic study 1 was carried out (see Example 98: P5P analog 16i: Pharmacokinetic study 1) to assess if P5P analog 16i was able to be converted to P5P and increase plasma P5P, to assess if P5P analog 16i was orally available, and to compare the ability of PO P5P analog 16i and PO P5P to increase plasma P5P.
(§1) In order to isolate the effects of the administered P5P analog 16i on pyridoxine (PL) and P5P (PLP) levels, the basal levels of both PL and P5P were subtracted from the measured concentrations. Baseline subtraction was accomplished by subtracting pre-dose concentrations of either PL or P5P from the subsequent values in the time course.
Formulation—Both P5P (pyridoxal-5-phosphate) and P5P analog 16 were formulated in phosphate buffered saline (PBS) as homogenous solutions on the day of dosing.
(§2) Animals and group—13 CD ♂ rats with an approx. weigh of ˜250 g were used. Animals were split into 4 groups+1 extra (n=3 for each group). Animals were allowed a 5-day acclimatization period in animal facility. The animal room environment was controlled (temperature 22 f 0.2° C.; relative humidity 55 f 25%; 12 hours light/dark cycle, and 12 air changes per hour). A standard certified commercial rodent chow was provided to the animals ad libitum. Procedures involving the care and use of animals in this study were reviewed and approved by the Institutional Animal Care and Use Committee (IACUC) prior to conduct. One day prior to dosing on D-1, Rats were divided in 4 groups (Table 7). Rats in Group 3 and 4 were fasted overnight (12-14 hours) with access to water.
On day 0, animals were identified, weighted, and dosed by intravenous (IV) injection or oral gavage (PO) as described in Table 7. Food tray were returned to Group 3 and 4, 2 hrs post dosing.
(§3) Blood was collected at indicated time points below for all groups: Pre-dose, 5′, 15′, 30′, 1 h, 2 h, 4 h, 6 h, 8 h, 24 h.
(§4) About 150 μL of blood was collected at indicated time points below using K2EDTA tubes. Blood was kept on ice until centrifugation at 4° C. at 6000 RCF for 10 min. Plasma was collected and kept on dry ice until transferred at −80° C.

[2] = Single ascending dose study of P5P analog 16, oral, rats; assay type: in vivo; settings: single PO dose 10, 30, 100, 300 mg/kg, rat, observed to 24 hrs
Description: Single ascending dose studies were carried out (Example 97: P5P analog 16i: single ascending dose study) to assess the maximum tolerability of a P5P analog (compound of formula 16i) in rats under 4 different doses under one single administration via Per Os (P.O.—oral) route, and to inform the linearity of pharmacokinetics (PK) with multiple dosing.
as §1, with “compound of formula” for “P5P analog”
Formulation—P5P analog 16 was formulated in 1% methylcellulose in water on the day of dosing.
as §2, with “and group—17” for “and group—13”, “extra (n=4” for “extra (n=3”, “(Table 6). Animals were identified and bled for pre-dose blood.” for “(Table 7).”, “in all groups” for “in Group 3 and 4”, “access of” for “access to”
On day 0, animals in groups 1-2-3 were weighed, and dosed by oral gavage as described in Table 6. Each remaining dosing solutions were stirred (or slightly vortexed), a 50 ul sample were collected and placed in separate tube and both vials immediately frozen on dry ice. Food tray were returned to animals two hours post dosing.
Cage-side observation were done upon dosing, at the end of day, and 24 hrs post dosing (record adverse effect if observed). Animal were weighed again at 24 hrs post dosing.
Blood was collected at indicated time points for all groups at: Pre-dose, 15′, 30′, 1 h, 2 h, 4 h, 6 h, 8 h, 24 h.
as §4

[3] = Pharmacokinetic study 2: P5P analogs 16 and 16v, IV and PO, rats; assay type: in vivo; settings: rat
Description: Pharmacokinetic study 2 was carried out (Example 99: P5P analog 16i: Pharmacokinetic study 2) to assess the effect of the P5P analog 16v compared to P5P analog 16i.
as §1, with “analogs” for “analog”, “16i and 16v” for “16i”, “P5P” for “P5P (PLP)”
Formulation—Both P5P analog 16 and P5P analog 16v were formulated in 40% hydroxypropyl-β-cyclodextrin in water as homogenous solutions on the day of dosing.
as §2, with “8).” for “7).”
On day 0, animals were identified, weighted, and dosed by intravenous (IV) injection or oral gavage (PO) as described in Table 8. Food tray were returned to Group 3 and 4, 2 hrs post dosing.
as §3, §4

[4] = Pharmacokinetic study 3: P5P analog 16vi and Compound II.I., IV and PO, rats; assay type: in vivo; settings: rat
Description: […] (Example 100: P5P analog 16vi and compound II.I.: Pharmacokinetic study 3) to assess the effect of a P5P analog not encompassed by the compound of Formula I (Compound II.I.), amino acid modification (P5P analog 16vi) and compounds of formula 16iii, 16i and a racemic mixture of 16i.
as §1, with “administered Compound II.I. and” for “administered”, “16vi” for “16i”, “P5P” for “P5P (PLP)”
Formulation—Compound II.I. was formulated in 0.9% saline while P5P analog 16vi was formulated in 40% hydroxypropyl-β-cyclodextrin in water as a homogenous solution on the day of dosing.
as §2, with “9).” for “7).”
On day 0, animals were identified, weighted, and dosed by intravenous (IV) injection or oral gavage (PO) as described in Table 9. Food tray were returned to Group 3 and 4, 2 hrs post dosing.
as §3
About 150 μL of blood was collected at indicated time points below using K2EDTA tubes. Blood was kept on ice until centrifugation at 4° C. at 6000 RCF for 10 min. […]

[5] = tested on: plasma enzymes; settings: Sprague Dawley, rat

SMILES: Cc1ncc(COP(=O)(N[C@@H](C)C(=O)OC(C)C)Oc2ccccc2)c(C=O)c1O (mixture of isomers) [Compound 16, (2S)-Isopropyl 2-(((4-formyl-5-hydroxy-6-methylpyridin-3-yl)methoxy)(phenoxy)phosphorylamino)propanoate]
- time after which the dosed compound is no longer left/detectable in the plasma ([1]; IV 1 mg/kg): 6 h
- ability to increase plasma PLP compared to PLP itself ([1]; given PO, FIGS. 7 a-d): improved ability
- prodrug (P5P analog) time of peak ([1]; oral 10 mg/kg): 0.5 hours
- adverse reactions / clinical signs [2]: no adverse reactions

SMILES: CCC(CC)COC(=O)[C@H](C)NP(=O)(OCc1cnc(C)c(O)c1C=O)Oc1ccccc1 (stereo partly drawn) [Compound 16v, (2S)-2-Ethylbutyl 2-(((4-formyl-5-hydroxy-6-methylpyridin-3-yl)methoxy)(phenoxy)phosphorylamino)propanoate]
- oral availability of the prodrug (crosses gastrointestinal wall, detectable in circulation) ([3]; dosed orally): orally bioavailable
- Tmax ([3]; male, CD, plasma, IV 1 mg/kg, read-out: prodrug (P5P analog) time of Cmax): 6 min
- plasma levels of P5P after oral dosing compared to P5P analog 16i ([3]; oral dosing): slightly greater amounts

SMILES: Cc1ncc(COP(=O)(N[C@@H](Cc2ccccc2)C(=O)OC(C)C)Oc2ccccc2)c(C=O)c1O (stereo partly drawn) [Compound 16vi, (2S)-Isopropyl 2-(((4-formyl-5-hydroxy-6-methylpyridin-3-yl)methoxy)(phenoxy)phosphorylamino)-3-phenylpropanoate]
- oral bioavailability (detection in plasma after oral dosing) ([4]; dosed orally): did not demonstrate significant oral bioavailability; also recorded: nor P5P were detected in the plasma at any significant levels
- Cmax ([4]; male, CD, plasma, po, orally 10 mg/kg, read-out: dosed compound Cmax in plasma): 1650 ng/mL
- dosed compound exposure ([4]; orally 10 mg/kg): 1592 ng/ml*hr

SMILES: Cc1ncc(COP(=O)(N[C@@H](C)C(=O)Oc2ccc3c(c2)CCCC3)Oc2ccccc2)c(C=O)c1O (stereo partly drawn) [Compound 16xxxiv, (2S)-5,6,7,8-Tetrahydronaphthalen-2-yl 2-(((4-formyl-5-hydroxy-6-methylpyridin-3-yl)methoxy)(phenoxy)phosphorylamino)propanoate]
- P5P formed [5]: 4.9 µM
- relative P5P formed [5]: 144.1%

SMILES: Cc1ncc(COP(=O)(N[C@@H](C)C(=O)OC(C)C)Oc2ccc(Br)cc2F)c(C=O)c1O (stereo partly drawn) [Compound 16xxxix, (2S)-Isopropyl 2-((4-bromo-2-fluorophenoxy)((4-formyl-5-hydroxy-6-methylpyridin-3-yl)methoxy)phosphorylamino)propanoate]
- P5P formed [5]: 2.3 µM
- relative P5P formed [5]: 92.0%

SMILES: Cc1ncc(CO[P@@](=O)(N[C@@H](C)C(=O)OC(C)C)Oc2ccccc2)c(/C=N/C2CCCC2)c1O [Compound 16xxxvi, (S)-Isopropyl 2-((S)-((4-((E)-(cyclopentylimino)methyl)-5-hydroxy-6-methylpyridin-3-yl)methoxy)(phenoxy)phosphorylamino)propanoate]
- P5P formed [5]: 3.8 µM
- relative P5P formed [5]: 152.0%

SMILES: Cc1ccc(OP(=O)(N[C@@H](C)C(=O)OC(C)C)OCc2cnc(C)c(O)c2C=O)cc1 (stereo partly drawn) [Compound 16xxxvii, (2S)-Isopropyl 2-(((4-formyl-5-hydroxy-6-methylpyridin-3-yl)methoxy)(p-tolyloxy)phosphorylamino)propanoate]
- P5P formed [5]: 0.3 µM
- relative P5P formed [5]: 12.0%

SMILES: Cc1ncc(COP(=O)(N[C@@H](C)C(=O)OCc2ccccc2)Oc2ccccc2)c(/C=N/CCc2ccc(C#N)cc2)c1O (stereo partly drawn) [Compound 16xxxviii, (2S)-Benzyl 2-(((4-((E)-(4-cyanophenethylimino)methyl)-5-hydroxy-6-methylpyridin-3-yl)methoxy)(phenoxy)phosphorylamino)propanoate]
- P5P formed [5]: 0.5 µM
- relative P5P formed [5]: 14.7%

SMILES: Cc1ncc(COP(=O)(O)O)c(C=O)c1O [Compound P5P, pyridoxal-5-phosphate]
- overall exposure of P5P ([1]; IV 1 mg/kg): approximately 2200 ng/ml*hr
- time after which the dosed compound is no longer left/detectable in the plasma ([1]; IV 1 mg/kg): 4 h
- total exposure of pyridoxal (above baseline values) ([1]; IV 1 mg/kg): 770 ng/ml*hr
- plasma P5P Cmax ([1]; IV 1 mg/kg, PBS): 3373 ng/mL
- oral bioavailability of P5P ([1]; PO 10 mg/kg vs IV 1 mg/kg): 0%
- plasma pyridoxal Cmax ([1]; oral gavage 10 mg/kg): 3668 ng/mL
- P5P detected in the plasma over the 24-hour assessment period ([1]; oral gavage 10 mg/kg, 10 mg/kg): no detectable P5P; also recorded: not detected

From patent US20250034185A1 (priority 2021, published 2025)
